Assay results as given in patent US8377914B2, “Method of inducing negative chemotaxis” (Celtaxsys, Inc., priority 2008, dated 2013).
Like-named read-outs stand apart in the source and are kept apart here.

Tested on: neutrophils
Test: Chemorepulsion assay of neutrophils in Neuroprobe ChemoTx plates, migrated cells quantified with Cell Titer Glo
Format: cell-based, human
Conditions: for Activity (chemorepulsive activity): screened at 3.7, 11.1, 33.3 and 100 uM
Experimental: The chemorepulsive activity of idebenone, benazepril, rolipram, moxonidine, lamivudine, calcitriol, calcipotriol, loxoprofen, terbinafine, Synephrine and 6-aminoindazole was determined as follows: • 1. Prior to beginning the assay, the following were prepared: • a. 0.5% Fetal Calf Serum (FCS) in Iscove's Modified Dulbecco's Medium (IMDM) (Assay Medium) (Both from ATCC). • b. Migratory cells at a concentration of 2×10^7 cells/ml in Assay Medium. • c. The indicated dilutions of the ligand of interest in Assay Medium were prepared. • 2. The assay plates are Neuroprobe ChemoTx plates, part number 206-3 (3 um pore size) for neutrophils. • 3. The plates were removed from packaging, leaving the membrane behind. • 4. 31 μl of the following solutions were pipetted into each well: • a. For media controls and for chemorepulsion samples, Assay Medium was used. • b. For chemoattraction samples, appropriate dilution of ligand was used. • 5. A sterile needle was used to pop any and all small bubbles present in each well. • 6. The membrane was carefully placed onto the plate, starting at one side and then slowly lowering the other edge onto the plate. • 7. 29 μl of the following were pipetted onto the top of each circle: • a. For media controls and chemoattraction (CA) samples, use Assay Medium. • b. For chemorepulsion (CR) samples, use the appropriate dilution of ligand. • 8. 2 μl of cells (40,000 cells) were added to each bubble of liquid from step 7. • 9. A needle was used to pop all air bubbles. • 10. The plate was covered with the supplied lid and incubated for the desired time at 37° C. in 5% CO2. Unless otherwise indicated, the incubation time was 1 hour for neutrophils and 3 hours for T cells. For monocytes and B cells, the incubation time was 2 hours. • 11. After the desired assay time, the liquid was removed from the top of the plate using a Kimwipe. At this point, the plate was stored (with the membrane in place) for up to 2 hours at 4° C. • 12. The membrane was carefully removed from the top of the plate and discard. The plate was examined under a microscope to look for ligand crystallization, contamination and overall migration. • 13. White read plates were preloaded with 25 ul PBS. • 14. Using a multichannel pipettor, 5 ul of Cell Titer Glo (Promega # G7572) was added to each well. • 15. Using a multichannel pipettor set at 30 ul, lysed cell solution was transferred to white read plates pre-loaded with PBS. • 16. The plate was read using the BioTek Synergy4 plate reader in order to quantify the number of migrated cells.
The calcitriol analogs listed below were screened at concentrations of 3.7, 11.1, 33.3 and 100 uM as described above for chemorepulsive activity (FIGS. 11-13).

[1] = Homo sapiens, Neutrophil, read-out: fold induction of chemorepulsion over media
[2] = Homo sapiens, Neutrophil, neutrophils, 0.1 uM, replicates, read-out: fold induction of chemorepulsion over media

COc1nc(C)nc(Cl)c1NC1=NCCN1 [moxonidine]
fold induction at 0.092 µM (Homo sapiens, Neutrophil, neutrophils, 0.092 uM, replicates, read-out: fold induction of chemorepulsion over media): ~2
fold induction at 9.9 µM (Homo sapiens, Neutrophil, neutrophils, 9.9 uM, replicates, read-out: fold induction of chemorepulsion over media): > 2

C=C1/C(=C\C=C2/CCC[C@]3(C)[C@@H]([C@H](C)/C=C/[C@@H](O)C4CC4)CC[C@@H]23)C[C@@H](O)C[C@@H]1O [Calcipotriene]
Activity (chemorepulsive activity) (neutrophils): Chemorepellant

CN(C/C=C/C#CC(C)(C)C)Cc1cccc2ccccc12 [terbinafine, N,6,6-trimethyl-N-(naphthalen-1-ylmethyl)hept-2-en-4-yn-1-amine]
fold induction at 89 µM (Homo sapiens, Neutrophil, neutrophils, 89 uM, read-out: fold induction of chemorepulsion over media): > 2.5

CCOC(=O)[C@H](CCc1ccccc1)N[C@H]1CCc2ccccc2N(CC(=O)O)C1=O [benazepril]
fold induction at 0.92 µM [1]: ~2

CNCC(O)c1ccc(O)cc1 (stereo not drawn) [synephrine]
fold induction at 0.1 µM [1]: > 2

C=C1/C(=C\C=C2/CCCC3(C)C2CCC3[C@@H](C)CCCC(C)(C)O)C[C@@H](O)CC1O (stereo partly drawn) [calcitriol, 1,25-dihydroxyvitamin D]
fold induction at 100 µM (Homo sapiens, Neutrophil, neutrophils, 100 uM, read-out: fold induction of chemorepulsion over media): > 3

C=C1/C(=C\C=C2/CCC[C@]3(C)[C@@H]([C@H](C)CCCC(C)C)CC[C@@H]23)C[C@@H](O)C[C@@H]1O [1α-hydroxycholecalciferol]
Activity (chemorepulsive activity) (neutrophils): No activity

CC(C(=O)O)c1ccc(CC2CCCC2=O)cc1 (stereo not drawn) [loxoprofen]
fold induction at 0.091 µM [1]: > 2

Nc1ccc2c[nH]nc2c1 [6-aminoindazole]
fold induction at 0.1 µM [2]: > 3

C=C1/C(=C\C=C2/CCC[C@]3(C)[C@@H]([C@H](C)/C=C/[C@H](C)C(C)C)CC[C@@H]23)C[C@@H](O)C[C@@H]1O [1α-hydroxyvitamin D2]
Activity (chemorepulsive activity) (neutrophils): No activity

COc1ccc(C2CNC(=O)C2)cc1OC1CCCC1 (stereo not drawn) [rolipram, 4-(3-cyclopentyloxy-4-methoxy-phenyl)pyrrolidin-2-one]
fold induction at 0.1 µM [2]: 2

C=C1CC[C@H](O)C/C1=C/C=C1\CCC[C@]2(C)[C@@H]([C@H](C)CCCC(C)(C)O)CC[C@@H]12 [Calcefidiol]
Activity (chemorepulsive activity) (neutrophils): No activity

C=C1CC[C@H](O)C/C1=C/C=C1\CCC[C@]2(C)[C@@H]([C@H](C)/C=C/[C@H](C)C(C)C)CC[C@@H]12 [Vitamin D2, ergocalciferol]
Activity (chemorepulsive activity) (neutrophils): Chemorepellant

C=C1CC[C@H](O)C/C1=C/C=C1\CCC[C@]2(C)[C@@H]([C@H](C)CCCC(C)C)CC[C@@H]12 [Vitamin D3, cholecalciferol]
Activity (chemorepulsive activity) (neutrophils): Chemorepellant
